The subject of experiment [1] is phenylephrine (10 μM) pre-contracted rat isolated prostate. The experiment in a line: Relaxation of phenylephrine pre-contracted rat isolated prostate strips (isometric tension). The conditions noted are these: for relaxation: 10 μM, 1 hour. As to the method:
The rat isolated prostate tissue was prepared as previously described with modifications^[10]. Briefly, Wistar rats (300-400 g) were killed with pentobarbital sodium (30 mg/kg) and the ventral part of their prostates were quickly excised. […] O2 and 5% CO2.
Isometric tension was recorded with a force displacement transducer (UGO BASILE, Model 7004, Italy). After the equilibration period, the strips were primed twice by adding 10 μM of the agonist, phenylephrine, to reach 80-100% of maximum contraction. […] The relaxation on rat prostate by KMUP-1 (0.01-100 μM) and tamsulosin (0.001 nM-100 μM) were also tested by their combination with sildenafil (0.1 μM), respectively. In isolated prostate strips, while stable constriction to phenylephrine was reached, sildenafil (0.1 μM) was pre-incubation for 30 minutes, before the cumulative addition of KMUP-1 (0.01-100 μM) or tamsulosin (0.001 nM-100 μM) to isolated prostate strips. In another experiment, to examine the possible mechanism of action of KMUP-1, rat prostates were pretreated with ODQ (1H-[1,2,4]oxadiazolo[4,3-a]quinoxalin-1-one, 10 μM, sGC inhibitor), RP-8pCPT-cGMPs (10 μM, PKG inhibitor), glibenclamide (10 μM, KATP channel blocker), 4-AP (4-aminopyridine, 100 μM, voltage-dependent K^+ channel blocker), apamin (1 μM, Ca^2+-dependent K^+ channel blocker) and charybdotoxin (ChTX) (0.1 μM, Ca^2+-dependent K^+ channel blocker) for 30 minutes before addition of KMUP-1 (100 μM).

The target in a further experiment is a1A-adrenergic receptor. To be noted: data from the reference; cited from earlier work.
Another experiment has as its system ROCK2. The experiment in a line: Western blot of phenylephrine-induced Rho kinase (ROCK2) expression in rat prostate. The conditions noted are these: KMUP-1 10, 100 μM; Y-27632 10 μM; phenylephrine 10 μM. As to the method: In order to examine the expression of Rho kinase in prostate, the prostate strips were pre-incubated with phenylephrine (10 μM) for 30 minutes. After a pre-treatment of phenylephrine, KMUP-1 (10-100 μM) and Y-27632 (10 μM) were further incubated for 30 minutes. After the incubation time, the prostate were extracted with protein extraction reagent (Pierce Biotechnology, Inc., Rockford, Ill., USA.). The PZ-HPV-7 cells were incubated with and without KMUP-1 (0.1-10 μM) at 30 minutes, 8 and 24 hours. They were then washed rapidly with ice-cold PBS, incubated with protein extraction reagent, and scraped from the plates. The prostate tissues and cells were sonicated three times for 10 second each time and centrifuged at 13,000 rpm at 4° C. for 30 minutes. The protein concentrations of supernatants were determined, using bovine serum albumin as the standard. Tissue and cell extract protein were then boiled at a ratio of 4:1 with sample buffer (100 mM Tris, pH 6.8, 20% glycerol, 4% SDS, and 0.2% bromphenol blue). 40-60 μg protein was used in this experiment. Electrophoresis was performed using 10 or 12% SDS-polyacrylamide gel electrophoresis and then transferred to nitrocellulose membranes (Millipore Corporation, Billerica, Mass.). […] The intensity of the bands was measured by densitometry.
(In western blotting, separated proteins are transferred to a membrane and probed.)

In the next experiment the test system is cGMP. Description: Determination of cGMP in rat isolated prostate (radioimmunoassay). To be noted: 100 μM, 1 hour. Here is the method: Isolated prostate strips from Wistar rats were prepared to determine prostate levels of cGMP and cAMP. Briefly, prostate strips were respectively incubated with KMUP-1 (10-100 μM), sildenafil (100 μM), and zaprinast (100 μM) in 10 mL Tyrode solution aerated with 95% O2 and 5% CO2 for 1 hour. To examine the possible mechanisms of action of KMUP-1, the rat prostate was pretreated with ODQ (10 μM, sGC inhibitor) and SQ22536 (9-(tetrahydro-2-furanyl)-9H-purin-6-amine, 10 μM, adenylyl cyclase inhibitor) for 30 minutes before KMUP-1 was added. After the incubation, the prostate tissues were extracted with 1 mL of 0.1 N HCl. The extracts were then lyophilized for a further measurement of cyclic GMP or cyclic AMP of each sample, using commercially available radioimmunoassay kits (Amersham Pharmacia Biotech, Buckinghamshire, England).

The next experiment has as its system PKG. Description: Western blot of PKG expression in rat prostate. To be noted: KMUP-1 10, 100 μM; sildenafil, zaprinast 100 μM. As to the method: (§1) Prostate strips were incubated with KMUP-1 (10-100 μM), sildenafil (100 μM) and zaprinast (100 μM) in 10 mL Tyrode solution aerated with 95% O2 and 5% CO2 for 1 hour. To examine the possible mechanisms of KMUP-1 action, the rat prostate were pretreated with ODQ (10 μM), SQ22536 (10 μM) and RP-8pCPT-cGMPs (10 μM) for 30 minutes prior to the addition of KMUP-1 (100 μM).
(§2) In order to examine the expression of Rho kinase in prostate, the prostate strips were pre-incubated with phenylephrine (10 μM) for 30 minutes. After a pre-treatment of phenylephrine, KMUP-1 (10-100 μM) and Y-27632 (10 μM) were further incubated for 30 minutes. After the incubation time, the prostate were extracted with protein extraction reagent (Pierce Biotechnology, Inc., Rockford, Ill., USA.). The PZ-HPV-7 cells were incubated with and without KMUP-1 (0.1-10 μM) at 30 minutes, 8 and 24 hours. They were then washed rapidly with ice-cold PBS, incubated with protein extraction reagent, and scraped from the plates. The prostate tissues and cells were sonicated three times for 10 second each time and centrifuged at 13,000 rpm at 4° C. for 30 minutes. The protein concentrations of supernatants were determined, using bovine serum albumin as the standard. Tissue and cell extract protein were then boiled at a ratio of 4:1 with sample buffer (100 mM Tris, pH 6.8, 20% glycerol, 4% SDS, and 0.2% bromphenol blue). 40-60 μg protein was used in this experiment. Electrophoresis was performed using 10 or 12% SDS-polyacrylamide gel electrophoresis and then transferred to nitrocellulose membranes (Millipore Corporation, Billerica, Mass.). The membrane was blocked with Tris-buffered saline (20 mM Tris and 137 mM NaCl, pH 7.6) containing 0.1% Tween 20 (TTBS) and 5% non-fat milk at room temperature for 1 hour, washed with TTBS, and then incubated overnight at 4° C. in the appropriate primary antibody of PKG (Santa Cruz, 1:200), sGCa1 (Santa Cruz, 1:200), PKA (Abcam, 1:1000), ROCK2 (Upstate, 1:1000), and PDE5A (BD Biosciences, 1:1000), p21 (Upstate, 1:1000). The membranes were washed in TTBS before being incubated with horseradish peroxidase-conjugated antibody against mouse, goat, or rabbit IgG (Santa Cruz, 1:1000) for 1 hour. The membrane was then washed in TTBS and developed with the enhanced chemiluminescence (ECL) for the detection of the specific antigen. The intensity of the bands was measured by densitometry.

For the next experiment, the system named is sGCa1. Description: Western blot of sGCa1 expression in rat prostate. The conditions noted are these: KMUP-1 10-100 μM; sildenafil, zaprinast 100 μM; 1 hour. As to the method:
as §1, §2

[2] abbreviates: phenylephrine 10 μM pre-contracted.

Each structure is given as a SMILES string.

Regarding `Nc1nc2c(nc(Sc3ccc(Cl)cc3)n2C2O[C@@H]3COP(=O)(O)O[C@H]3[C@H]2O)c(=O)[nH]1` (stereo in doubt) [8-pCPT-cGMP, reference compound], the relaxation in experiment [1] (setting [2]) is recorded as 35.00±4.40%.
For the compound `CCOc1ccccc1OCCN[C@H](C)Cc1ccc(OC)c(S(N)(=O)=O)c1` [tamsulosin, reference compound], on a1A-adrenergic receptor, the “Receptor Affinity (pKi) a1A” value is 9.7, the “Selective Ratio a1A/a1B” value is given as 6.3 and the “Selective Ratio a1A/a1D” value is listed as 0.2. Further, the relaxation in experiment [1] (setting [2]) is on record as 107.50±6.76%. The relaxation activity in experiment [1] (100 μM combined with sildenafil 0.1 μM) came out at 140.00±10.14%. Further, the relaxation ability in experiment [1] (100 μM, phenylephrine 10 μM pre-contracted) is recorded as 118.00±10.79%.
`C[C@@H](N)[C@H]1CC[C@H](C(=O)Nc2ccncc2)CC1` [Y-27632, reference compound]: the “phenylephrine-induced Rho kinase expression” value with ROCK2 is given as “protected against phenylephrine-induced Rho kinase expression”.
On to `COc1cc2nc(N3CCN(C(=O)C4COc5ccccc5O4)CC3)nc(N)c2cc1OC` (centres unmarked) [doxazosin, reference compound], for which, at a1A-adrenergic receptor, the “Receptor Affinity (pKi) a1A” value is recorded as 8.56. The relaxation in experiment [1] (setting [2]) came to 73.00±2.8%.
`CCCOc1ccccc1-c1nc2nn[nH]c2c(=O)[nH]1` [zaprinast, reference compound]: in the experiment with cGMP, the cGMP levels amounted to 2.23±0.24 pmol mg^−1 protein. Also, the “expression of PKG” value with PKG was “significantly induce”. Further, the relaxation in experiment [1] (setting [2]) turned out to be 79.00±5.00%. For the same compound, the “expression of sGCa1” value in the experiment with sGCa1 was “do not significantly induce”.
The compound `CCCc1nn(C)c2c(=O)[nH]c(-c3cc(S(=O)(=O)N4CCN(C)CC4)ccc3OCC)nc12` [sildenafil, reference compound] yielded a cGMP levels in the experiment with cGMP of 3.20±0.61 pmol mg^−1 protein. Besides, the “expression of PKG” value in the experiment with PKG is given as “significantly induce”. In addition, the relaxation ability worked out at 21.50±2.12% in experiment [1] (0.1 μM, phenylephrine 10 μM pre-contracted) and 78.00±8.02% in experiment [1] (fourth value of the sentence, concentration not given). Moreover, the relaxation in experiment [1] (setting [2]) turned out to be 50.00±6.37%. In the experiment on sGCa1, the “expression of sGCa1” value was “do not significantly induce”.
